In PubChem BioAssay AID248 (DTP/NCI, 2004):
Where “and” joins values, the source holds several entries; their conditions need not be identical. Equal values may be shown once. Inconclusive results and toxic doses are left out. No stated cut-off is given here; in the data, active means T/C of 150% or more; inactive means T/C below 125%.

System: L1210 leukemia ip in BDF1 mice, survival T/C
Experiment: NCI In Vivo Anticancer Drug Screen. Data for tumor model L1210 Leukemia (intraperitoneal) in B6D2F1 (BDF1) mice
Conditions: endpoint: mean survival time, higher = longer survival
How it was run: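 In this screen, tumor-bearing mice given compound are compared to those given vehicle, and their survival values are reported as a treated-to-control quotient.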

[1] = dose: 50.0 mg/kg/injection, schedule: Q01DX001 (ip), vehicle: carboxymethylcellulose (CMC)
[2] = dose: 100.0 mg/kg/injection, schedule: Q04DX003 (ip), vehicle: Klucel (hydroxypropylcellulose) (HPC)
[3] = dose: 200.0 mg/kg/injection, schedule: Q04DX003 (ip), vehicle: Klucel (hydroxypropylcellulose) (HPC)
[4] = dose: 400.0 mg/kg/injection, schedule: Q04DX003 (ip), vehicle: Klucel (hydroxypropylcellulose) (HPC)
[5] = dose: 100.0 mg/kg/injection, schedule: Q01DX001 (ip), vehicle: carboxymethylcellulose (CMC)
[6] = dose: 200.0 mg/kg/injection, schedule: Q01DX001 (ip), vehicle: carboxymethylcellulose (CMC)
[7] = dose: 400.0 mg/kg/injection, schedule: Q01DX001 (ip), vehicle: carboxymethylcellulose (CMC)
[8] = dose: 100.0 mg/kg/injection, schedule: Q01DX001 (ip), vehicle: saline
[9] = dose: 200.0 mg/kg/injection, schedule: Q01DX001 (ip), vehicle: saline
[10] = dose: 400.0 mg/kg/injection, schedule: Q01DX001 (ip), vehicle: saline

Measured: T/C

O=[N+]([O-])c1ccc(-[n+]2nc(-c3ccccc3)nn2-c2ccc(I)cc2)cc1
inactive: dose: 8.0 mg/kg/injection, schedule: Q01DX015 (ip), vehicle: carboxymethylcellulose (CMC) 96 % of control | dose: 16.0 mg/kg/injection, schedule: Q01DX015 (ip), vehicle: carboxymethylcellulose (CMC) 96 % of control | dose: 32.0 mg/kg/injection, schedule: Q01DX015 (ip), vehicle: carboxymethylcellulose (CMC) 103 % of control | [1] 91 % of control | dose: 64.0 mg/kg/injection, schedule: Q01DX015 (ip), vehicle: carboxymethylcellulose (CMC) 88 % of control

CC(N)CCC(O)C(=O)O (configuration not stated)
inactive: dose: 100.0 mg/kg/injection, schedule: Q04DX002 (ip), vehicle: saline 95 % of control | dose: 200.0 mg/kg/injection, schedule: Q04DX002 (ip), vehicle: saline 100 % of control | dose: 400.0 mg/kg/injection, schedule: Q04DX002 (ip), vehicle: saline 107 % of control

O=C(NCCCl)NC1CCc2ccccc2C1 (configuration not stated)
inactive: [2] 93 % of control | [3] 88 % of control | [4] 89 % of control

COc1cc2c(cc1[N+](=O)[O-])OCO2
inactive: dose: 100.0 mg/kg/injection, schedule: Q04DX003 (ip), vehicle: saline with Tween-80 104 % of control | dose: 200.0 mg/kg/injection, schedule: Q04DX003 (ip), vehicle: saline with Tween-80 97 % of control | dose: 400.0 mg/kg/injection, schedule: Q04DX003 (ip), vehicle: saline with Tween-80 98 % of control

C(=N\N(Cc1ccccc1)CN(Cc1ccccc1)/N=C/c1ccccc1)/c1ccccc1
inactive: dose: 100.0 mg/kg/injection, schedule: Q01DX001 (ip), vehicle: other 90 % of control | dose: 200.0 mg/kg/injection, schedule: Q01DX001 (ip), vehicle: other 94 % of control | dose: 400.0 mg/kg/injection, schedule: Q01DX001 (ip), vehicle: other 87 % of control

C=CC(C)C/C(CC)=N\NC(N)=O (configuration not stated)
inactive: dose: 75.0 mg/kg/injection, schedule: Q01DX001 (ip), vehicle: other 98 % of control | dose: 150.0 mg/kg/injection, schedule: Q01DX001 (ip), vehicle: other 103 % of control

ICC1COC(CI)CO1 (configuration not stated)
inactive: [5] 97 % of control | [6] 111 % of control and 95 % of control | [7] 95 % of control and 97 % of control

ClC1(c2ccccc2)C2CCCCC21 (configuration not stated)
inactive: dose: 75.0 mg/kg/injection, schedule: Q01DX001 (ip), vehicle: saline 100 % of control | dose: 150.0 mg/kg/injection, schedule: Q01DX001 (ip), vehicle: saline 100 % of control

[O]=[Sn]([OH])[OH]
inactive: dose: 100.0 mg/kg/injection, schedule: Q01DX009 (ip), vehicle: saline 97 % of control | dose: 200.0 mg/kg/injection, schedule: Q01DX009 (ip), vehicle: saline 94 % of control

C/C(=C\CN1C(=O)CCCC1=O)CCC(=O)O
inactive: dose: 100.0 mg/kg/injection, schedule: Q01DX009 (ip), vehicle: other 90 % of control | dose: 100.0 mg/kg/injection, schedule: Q04DX003 (ip), vehicle: other 102 % of control | dose: 200.0 mg/kg/injection, schedule: Q01DX009 (ip), vehicle: other 98 % of control | dose: 200.0 mg/kg/injection, schedule: Q04DX003 (ip), vehicle: other 91 % of control | dose: 400.0 mg/kg/injection, schedule: Q01DX009 (ip), vehicle: other 93 % of control | dose: 400.0 mg/kg/injection, schedule: Q04DX003 (ip), vehicle: other 93 % of control

CN(C)CC1CC(=O)C(CN(C)C)CC1=O (configuration not stated)
inactive: dose: 5.0 mg/kg/injection, schedule: Q01DX001 (ip), vehicle: saline 92 % of control | dose: 10.0 mg/kg/injection, schedule: Q01DX001 (ip), vehicle: saline 107 % of control | dose: 20.0 mg/kg/injection, schedule: Q01DX001 (ip), vehicle: saline 104 % of control | dose: 40.0 mg/kg/injection, schedule: Q01DX001 (ip), vehicle: saline 103 % of control

O=C1c2ccccc2C(=O)c2c1ccc1nc(Cl)c(=O)[nH]c21
inactive: [5] 93 % of control | [6] 95 % of control | [7] 100 % of control

O=C(Nc1cccc2ncccc12)c1ccc(C(=O)Nc2cccc3ncccc23)cc1
inactive: [8] 101 % of control | [9] 93 % of control | [10] 91 % of control

CCOC(=O)c1ccccc1NC(c1ccccc1)c1ccc2cccnc2c1O (configuration not stated)
inactive: [8] 101 % of control | [9] 97 % of control | [10] 91 % of control

COc1ccc(COC2C(O)C(CO)OC2n2cnc3c(N)ncnc32)cc1 (configuration not stated)
inactive: dose: 100.0 mg/kg/injection, schedule: Q01DX005 (ip), vehicle: saline 92 % of control | dose: 200.0 mg/kg/injection, schedule: Q01DX005 (ip), vehicle: saline 94 % of control

Nc1ncnc2c1nnn2C1OC(CO)C(O)C1O (configuration not stated)
inactive: dose: 42.0 mg/kg/injection, schedule: Q01DX015 (ip), vehicle: saline 104 % of control | dose: 50.0 mg/kg/injection, schedule: Q01DX001 (ip), vehicle: saline 107 % of control | dose: 63.0 mg/kg/injection, schedule: Q01DX015 (ip), vehicle: saline 98 % of control | dose: 72.0 mg/kg/injection, schedule: Q01DX015 (ip), vehicle: saline 117 % of control | dose: 100.0 mg/kg/injection, schedule: Q01DX001 (ip), vehicle: Klucel (hydroxypropylcellulose) (HPC) 97 % of control | [8] 109 % of control and 106 % of control | [2] 95 % of control | dose: 180.0 mg/kg/injection, schedule: Q01DX001 (ip), vehicle: Klucel (hydroxypropylcellulose) (HPC) 120 % of control | dose: 180.0 mg/kg/injection, schedule: Q01DX001 (ip), vehicle: saline 113 % of control | dose: 200.0 mg/kg/injection, schedule: Q01DX001 (ip), vehicle: Klucel (hydroxypropylcellulose) (HPC) 92 % of control | [9] 116 % of control and 109 % of control | [3] 95 % of control | dose: 270.0 mg/kg/injection, schedule: Q01DX001 (ip), vehicle: Klucel (hydroxypropylcellulose) (HPC) 122 % of control | dose: 400.0 mg/kg/injection, schedule: Q01DX001 (ip), vehicle: Klucel (hydroxypropylcellulose) (HPC) 122 % of control and 97 % of control | [10] 106 % of control | [4] 92 % of control

CCC(Cl)COP(=O)(OCC(Cl)CC)C(CC)P(=O)(OCC(Cl)CC)OCC(Cl)CC (configuration not stated)
inactive: dose: 100.0 mg/kg/injection, schedule: Q04DX003 (ip), vehicle: saline 91 % of control | dose: 200.0 mg/kg/injection, schedule: Q04DX003 (ip), vehicle: saline 95 % of control | dose: 400.0 mg/kg/injection, schedule: Q04DX003 (ip), vehicle: saline 93 % of control

CCOC(=O)C1CC(Cl)c2c(ccc3cc(OC)ccc23)N1 (configuration not stated)
inactive: dose: 25.0 mg/kg/injection, schedule: Q01DX001 (ip), vehicle: carboxymethylcellulose (CMC) 100 % of control | dose: 25.0 mg/kg/injection, schedule: Q01DX009 (ip), vehicle: carboxymethylcellulose (CMC) 98 % of control and 92 % of control | dose: 25.0 mg/kg/injection, schedule: Q04DX002 (ip), vehicle: carboxymethylcellulose (CMC) 93 % of control and 95 % of control | dose: 25.0 mg/kg/injection, schedule: Q04DX003 (ip), vehicle: carboxymethylcellulose (CMC) 97 % of control | [1] 107 % of control | dose: 50.0 mg/kg/injection, schedule: Q01DX009 (ip), vehicle: carboxymethylcellulose (CMC) 100 % of control and 91 % of control | dose: 50.0 mg/kg/injection, schedule: Q04DX002 (ip), vehicle: carboxymethylcellulose (CMC) 101 % of control and 103 % of control | dose: 50.0 mg/kg/injection, schedule: Q04DX003 (ip), vehicle: carboxymethylcellulose (CMC) 95 % of control | dose: 100.0 mg/kg/injection, schedule: Q01DX009 (ip), vehicle: carboxymethylcellulose (CMC) 93 % of control | dose: 100.0 mg/kg/injection, schedule: Q04DX002 (ip), vehicle: carboxymethylcellulose (CMC) 95 % of control and 108 % of control | dose: 100.0 mg/kg/injection, schedule: Q04DX003 (ip), vehicle: carboxymethylcellulose (CMC) 95 % of control
